In PubChem BioAssay AID1205 (EPA DSSTox, 2008):
The source made the active and inactive calls.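 Rule for the calls: active = tumour findings in long-term animal cancer tests in more than one sex, species or organ; inactive = no tumour finding and more than one negative test.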

Experiment: DSSTox (CPDBAS) Carcinogenic Potency Database Summary MultiCellCall Results
Conditions: animal carcinogenicity bioassays, multi-cell call summary
Procedure, shortened: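 ActivityScore sums 50 for multispecies, 30 for multisex and 20 for multisite positivity. Based on the most positive experiment per sex-species across standardised chronic rodent and other animal cancer tests.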

Row | SMILES | outcome
1 | CCOP(=S)(OCC)Oc1cc(C)nc(C(C)C)n1 | inactive; multisex inactive; multispecies inactive
2 | CCCCC1(COC(=O)CCC(=O)O)C(=O)N(c2ccccc2)N(c2ccccc2)C1=O | inactive; multisex inactive
3 | Cc1c(-c2cnccn2)ssc1=S | inactive; multisex inactive
4 | C=CCN(CC(C)=O)N=O | active; multisite active; multispecies active
5 | [O-]/[N+](=N\O)c1ccccc1 | active; multisite active; multisex active; multispecies active
6 | CCC1CO1 (configuration not stated) | active; multisite active
7 | CN(C)[C@@H]1C(=O)C(C(N)=O)=C(O)[C@@]2(O)C(=O)C3=C(O)c4c(O)cccc4[C@@](C)(O)[C@H]3C[C@@H]12 | inactive; multisex inactive; multispecies inactive
8 | CCCc1ccc2c(c1)OCO2 | active; multisite active; multisex active; multispecies active
9 | COC(N)=O | active; multisex active
10 | CC(=O)OC[C@H]1O[C@H](O[C@]2(COC(C)=O)O[C@H](COC(=O)C(C)C)[C@@H](OC(=O)C(C)C)[C@@H]2OC(=O)C(C)C)[C@H](OC(=O)C(C)C)[C@@H](OC(=O)C(C)C)[C@@H]1OC(=O)C(C)C | inactive; multisex inactive; multispecies inactive
11 | COc1ccc(OC)c(/C=C/c2ccc(N)cc2)c1 | active; multisite active; multispecies active
12 | O=CNNc1nc(-c2ccc([N+](=O)[O-])o2)cs1 | active; multisite active; multisex active; multispecies active
13 | N[C@@H](CS)C(=O)O | inactive; multisex inactive
14 | O=NN(CCO)C(=O)NCCCl | active; multisite active; multisex active
15 | CCCCCN(N=O)C(N)=O | active; multisite active; multisex active
16 | CC1=C(/C=C/C(C)=C/C=C/C(C)=C/C=C/C=C(C)/C=C/C=C(C)/C=C/C2=C(C)CCCC2(C)C)C(C)(C)CCC1 | inactive; multisex inactive; multispecies inactive
17 | O=CNc1nc(-c2ccc([N+](=O)[O-])o2)cs1 | active; multisite active; multisex active; multispecies active
18 | O=C(O)Cc1c[nH]c2ccccc12 | inactive; multisex inactive
19 | CCCC/C=N/N(C)C=O | active; multisite active; multisex active
20 | COc1ccc(C(c2ccc(OC)cc2)C(Cl)(Cl)Cl)cc1 | inactive; multisex inactive; multispecies inactive
21 | CCOP(=S)(OCC)SC1OCCOC1SP(=S)(OCC)OCC (configuration not stated) | inactive; multisex inactive; multispecies inactive
22 | O.[Cd+2].[Cl-].[Cl-] | inactive; multisex inactive
23 | C#C[C@]1(O)CC[C@H]2[C@@H]3CCc4cc(OC)ccc4[C@H]3CC[C@@]21C | inactive; multisex inactive
24 | O=C(O)c1nn(Cc2ccc(Cl)cc2Cl)c2ccccc12 | inactive; multisex inactive

Row | SMILES | outcome
25 | c1ccc2n[nH]nc2c1 | inactive; multisex inactive; multispecies inactive
26 | CC(C)(Oc1ccc(C2CCCc3ccccc32)cc1)C(=O)O (configuration not stated) | active; multisite active; multisex active
27 | C=CN1CCCC1=O | active; multisite active; multisex active
28 | Cc1cc(C)nc(NS(=O)(=O)c2ccc(N)cc2)n1 | active; multisex active
29 | C=CCc1ccc(O)c(OC)c1 | inactive; multisex inactive; multispecies inactive
30 | O=S(=O)(Oc1ccc(Cl)cc1)c1ccc(Cl)cc1 | inactive; multisex inactive
31 | O=C(O)COc1ccc(Cl)cc1Cl | inactive; multisex inactive; multispecies inactive
32 | c1ccc(N=Nc2ccccc2)cc1 | active; multisite active; multisex active
33 | O=P(OCC(Br)CBr)(OCC(Br)CBr)OCC(Br)CBr (configuration not stated) | active; multisite active; multisex active; multispecies active
34 | Cc1ccc2ncccc2c1 | inactive; multisex inactive
35 | CC(=O)Nc1ccc2c(c1)C(=O)c1ccccc1-2 | active; multisite active
36 | Nc1ccc([N+](=O)[O-])cc1 | inactive; multisex inactive; multispecies inactive
37 | O=C1CCC(=O)O1 | inactive; multisex inactive; multispecies inactive
38 | CC(Cl)Cl | inactive; multisex inactive; multispecies inactive
39 | COC1[C@@H](O[C@@H]2O[C@H](C)[C@@H](O[C@H]3C[C@@](C)(O)[C@H](OC(=O)CC(C)C)[C@H](C)O3)[C@H](N(C)C)[C@H]2O)[C@@H](CC=O)C[C@@H](C)[C@@H](O)/C=C/C=C/C[C@@H](C)OC(=O)C[C@H]1OC(C)=O (some centres not stated) | inactive; multisex inactive
40 | CC(Oc1cc(Cl)c(Cl)cc1Cl)C(=O)O (configuration not stated) | inactive; multisex inactive
41 | CCc1cccc2c3c([nH]c12)C(CC)(CC(=O)O)OCC3 (configuration not stated) | inactive; multisex inactive; multispecies inactive
42 | CCCCNNCCCC | active; multisite active; multisex active
43 | C1COCCO1 | active; multisite active; multisex active; multispecies active
44 | Oc1ccc(O)cc1 | active; multisite active; multisex active; multispecies active
45 | CC(C)CCC[C@@H](C)[C@H]1CC[C@H]2[C@@H]3CC=C4C[C@@H](OC(=O)Cc5ccc(N(CCCl)CCCl)cc5)CC[C@]4(C)[C@H]3CC[C@]12C | active; multisite active; multisex active; multispecies active
46 | N#CN=C(N)N | inactive; multisex inactive
47 | O=c1[nH]cc(F)c(=O)[nH]1 | active; multisite active; multisex active
